Here are results for 22 compounds from paper PMC11087051, “Large-scale deorphanization of Nematostella vectensis neuropeptide G protein-coupled receptors supports the independent expansion of bilaterian and cnidarian peptidergic systems” (eLife, 2024).

Residues, ends and D or L forms follow the SMILES beside them.

The nature of this data set: Maximal solubility of the synthetic peptides in water and in DMSO (sheet Peptide_mixes). The class given is physicochemical. To be noted: for max solve (DMSO): in DMSO, number in brackets in the cell; for max solve water: in water, number before the bracket in the cell. From the text: Supplement elife-90674-supp3.xlsx, sheet "Peptide_mixes"

For the compound `CC(C)C[C@H](NC(=O)CNC(=O)[C@@H]1CCCN1C(=O)[C@@H]1CCCN1C(=O)[C@@H](N)CS)C(=O)N[C@@H](Cc1c[nH]c2ccccc12)C(=O)N[C@@H](CS)C(N)=O` [Am_CCa] (H-CPPGLWC-NH2), the “max solve (DMSO)” value was 10 mg/mL and the max solve water was 5 mg/mL.
Taken in the same sequence, the figures for `CC(C)C[C@H](NC(=O)[C@H](CO)NC(=O)[C@H](CCC(=O)O)NC(=O)CNC(=O)[C@H](CC(=O)O)NC(=O)[C@@H](NC(=O)[C@H](CCC(=O)O)NC(=O)[C@@H]1CCC(=O)N1)[C@@H](C)O)C(=O)N[C@@H](CCCCN)C(=O)N[C@@H](CCCCN)C(=O)N[C@@H](C)C(=O)N[C@@H](CCC(=O)O)C(=O)N[C@@H](CCC(=O)O)C(=O)N[C@@H](CCC(=O)O)C(=O)N[C@@H](Cc1ccccc1)C(=O)N[C@H](C(=O)O)C(C)C` [EFV] (HELM PEPTIDE1{[Glp].E.T.D.G.E.S.L.K.K.A.E.E.E.F.V}$$$$V2.0) were 10 mg/mL and 5 mg/mL.
The corresponding values for `C[C@H](NC(=O)[C@H](CCCCN)NC(=O)[C@H](Cc1ccccc1)NC(=O)[C@@H](N)Cc1ccccc1)C(N)=O` [FFKAa] (H-FFKA-NH2) are 10 (10) mg/ml and 10 (10) mg/ml.
The corresponding values for `CC(C)C[C@H](NC(=O)[C@@H](N)Cc1ccccc1)C(=O)N[C@@H](CCCNC(=N)N)C(=O)N[C@@H](CC(N)=O)C(N)=O` [FLRNa] (H-FLRN-NH2) are 10 (10) mg/ml and 10 (10) mg/ml.
For `CSCC[C@H](NC(=O)[C@H](CC(C)C)NC(=O)CNC(=O)[C@@H]1CCC(=O)N1)C(=O)N[C@@H](Cc1ccccc1)C(=O)N[C@@H](CCCNC(=N)N)C(=O)N1CCC[C@H]1C(N)=O` [FRPa2] (HELM PEPTIDE1{[Glp].G.L.M.F.R.P.[am]}$$$$V2.0), the “max solve (DMSO)” value turned out to be 10 mg/mL and the max solve water came out at 5 mg/mL.
Taken in the same sequence, the figures for `CC(C)C[C@H](NC(=O)[C@@H]1CCC(=O)N1)C(=O)N[C@@H](Cc1ccccc1)C(=O)N[C@@H](CCCNC(=N)N)C(=O)N1CCC[C@H]1C(N)=O` [FRPa4] (HELM PEPTIDE1{[Glp].L.F.R.P.[am]}$$$$V2.0) were 10 (10) mg/ml and 10 (10) mg/ml.
With `CC[C@H](C)[C@H](NC(=O)[C@H](CC(C)C)NC(=O)[C@@H]1CCC(=O)N1)C(=O)N[C@@H](Cc1ccccc1)C(=O)N[C@@H](CCCNC(=N)N)C(=O)N1CCC[C@H]1C(N)=O` [FRPa] (HELM PEPTIDE1{[Glp].L.I.F.R.P.[am]}$$$$V2.0), the “max solve (DMSO)” value was found to be 10 mg/mL and the max solve water was found to be 5 mg/mL.
Taken in the same sequence, the figures for `CC(C)[C@H](NC(=O)[C@H](CCCNC(=N)N)NC(=O)[C@H](Cc1ccc(O)cc1)NC(=O)[C@@H](N)Cc1ccccc1)C(N)=O` [FYRVa] (H-FYRV-NH2) were 10 mg/mL and 2 mg/mL.
Regarding `CC(C)C[C@H](NC(=O)CNC(=O)[C@@H]1CCCN1C(=O)[C@@H]1CCCN1C(=O)[C@H](CS)NC(=O)[C@@H]1CCC(=O)N1)C(=O)N[C@@H](Cc1c[nH]c2ccccc12)C(=O)NCC(=O)N[C@@H](CS)C(=O)O` [GLWG] (HELM PEPTIDE1{[Glp].C.P.P.G.L.W.G.C}$$$$V2.0), the “max solve (DMSO)” value is 10 (10) mg/ml and the max solve water is on record as 10 (10) mg/ml.
In the case of `CC(C)C[C@@H]1NC(=O)CNC(=O)[C@@H]2CCCN2C(=O)[C@@H]2CCCN2C(=O)[C@@H](NC(=O)[C@@H]2CCC(=O)N2)CSSC[C@@H](C(=O)O)NC(=O)CNC(=O)[C@H](Cc2c[nH]c3ccccc23)NC1=O` [GLWGcc] (HELM PEPTIDE1{[Glp].C.P.P.G.L.W.G.C}$PEPTIDE1,PEPTIDE1,2:R3-9:R3$$$V2.0), the “max solve (DMSO)” value came out at 10 mg/mL and the max solve water came to 2 mg/mL.
Taken in the same sequence, the figures for `CC(C)C[C@H](NC(=O)[C@H](CCCNC(=N)N)NC(=O)[C@@H](NC(=O)[C@H](CC(N)=O)NC(=O)[C@H](C)NC(=O)[C@H](CCCCN)NC(=O)[C@H](CS)NC(=O)[C@H](CC(C)C)NC(=O)[C@H](Cc1c[nH]c2ccccc12)NC(=O)[C@H](CC(C)C)NC(=O)CNC(=O)[C@@H]1CCCN1C(=O)[C@@H]1CCCN1C(=O)[C@H](CS)NC(=O)[C@H](Cc1c[nH]cn1)NC(=O)CNC(=O)[C@H](CC(N)=O)NC(=O)[C@@H]1CCC(=O)N1)[C@@H](C)O)C(=O)O` [GLWL] (HELM PEPTIDE1{[Glp].N.G.H.C.P.P.G.L.W.L.C.K.A.N.T.R.L}$$$$V2.0) were 10 mg/mL and 5 mg/mL.
Taken in the same sequence, the figures for `CC(C)C[C@H](NC(=O)[C@H](CCCNC(=N)N)NC(=O)[C@@H](NC(=O)[C@H](CC(N)=O)NC(=O)[C@H](C)NC(=O)[C@H](CCCCN)NC(=O)[C@@H]1CSSC[C@H](NC(=O)[C@H](Cc2c[nH]cn2)NC(=O)CNC(=O)[C@H](CC(N)=O)NC(=O)[C@@H]2CCC(=O)N2)C(=O)N2CCC[C@H]2C(=O)N2CCC[C@H]2C(=O)NCC(=O)N[C@@H](CC(C)C)C(=O)N[C@@H](Cc2c[nH]c3ccccc23)C(=O)N[C@@H](CC(C)C)C(=O)N1)[C@@H](C)O)C(=O)O` [GLWLcc] (HELM PEPTIDE1{[Glp].N.G.H.C.P.P.G.L.W.L.C.K.A.N.T.R.L}$PEPTIDE1,PEPTIDE1,5:R3-12:R3$$$V2.0) were 5 (5) mg/ml and 5 (5) mg/ml.
The corresponding values for `CC(C)C[C@H](NC(=O)CNC(=O)[C@@H]1CCCN1C(=O)[C@H](C)NC(=O)CNC(=O)[C@H](C)NC(=O)[C@@H]1CCC(=O)N1)C(=O)N[C@@H](Cc1c[nH]c2ccccc12)C(N)=O` [GLWa1] (HELM PEPTIDE1{[Glp].A.G.A.P.G.L.W.[am]}$$$$V2.0) are 10 mg/mL and 5 mg/mL.
For the compound `CC(C)C[C@H](NC(=O)CNC(=O)[C@@H]1CCCN1C(=O)[C@@H]1CCCN1C(=O)CNC(=O)[C@H](C)NC(=O)[C@@H]1CCC(=O)N1)C(=O)N[C@@H](Cc1c[nH]c2ccccc12)C(N)=O` [GLWa2] (HELM PEPTIDE1{[Glp].A.G.P.P.G.L.W.[am]}$$$$V2.0), the “max solve (DMSO)” value is given as 10 (10) mg/ml and the max solve water is recorded as 10 (10) mg/ml.
As for `CSCC[C@H](NC(=O)[C@H](C)NC(=O)[C@@H]1CCC(=O)N1)C(=O)N[C@@H](CCC(N)=O)C(=O)N[C@@H](Cc1c[nH]c2ccccc12)C(=O)NCC(=O)N[C@@H](Cc1c[nH]cn1)C(=O)N[C@@H](CCCCN)C(=O)NCC(=O)N[C@@H](Cc1c[nH]c2ccccc12)C(=O)N[C@@H](C)C(=O)O` [GWA1] (HELM PEPTIDE1{[Glp].A.M.Q.W.G.H.K.G.W.A}$$$$V2.0), the “max solve (DMSO)” value came out at 10 mg/mL and the max solve water is 0 mg/mL.
`CC[C@H](C)[C@H](NC(=O)[C@H](Cc1c[nH]cn1)NC(=O)[C@H](Cc1ccccc1)NC(=O)[C@H](Cc1ccccc1)NC(=O)[C@H](CO)NC(=O)[C@@H]1CCCN1C(=O)[C@H](CCC(=O)O)NC(=O)CNC(=O)[C@H](CC(C)C)NC(=O)[C@H](CC(=O)O)NC(=O)[C@H](CC(C)C)NC(=O)[C@H](Cc1ccc(O)cc1)NC(=O)[C@@H]1CCCN1C(=O)[C@@H]1CCCN1C(=O)[C@@H]1CCC(=O)N1)C(=O)N[C@@H](CCCNC(=N)N)C(N)=O` [HIRa1] (HELM PEPTIDE1{[Glp].P.P.Y.L.D.L.G.E.P.S.F.F.H.I.R.[am]}$$$$V2.0): the “max solve (DMSO)” value is reported as 10 (10) mg/ml and the max solve water is given as 10 (10) mg/ml.
Take `CC[C@H](C)[C@H](NC(=O)[C@H](Cc1c[nH]cn1)NC(=O)[C@H](Cc1ccccc1)NC(=O)[C@H](Cc1ccc(O)cc1)NC(=O)[C@H](C)NC(=O)[C@@H]1CCCN1C(=O)[C@@H](NC(=O)[C@H](CC(C)C)NC(=O)[C@H](CC(=O)O)NC(=O)[C@H](CC(C)C)NC(=O)[C@H](Cc1ccc(O)cc1)NC(=O)[C@@H]1CCCN1C(=O)[C@@H]1CCCN1C(=O)[C@@H]1CCC(=O)N1)[C@@H](C)O)C(=O)N[C@@H](CCCNC(=N)N)C(N)=O` [HIRa3] (HELM PEPTIDE1{[Glp].P.P.Y.L.D.L.T.P.A.Y.F.H.I.R.[am]}$$$$V2.0): the “max solve (DMSO)” value worked out at 10 mg/mL and the max solve water is 5 mg/mL.
Taken in the same sequence, the figures for `CC[C@H](C)[C@H](NC(=O)[C@H](Cc1c[nH]cn1)NC(=O)[C@H](Cc1ccccc1)NC(=O)[C@H](Cc1ccc(O)cc1)NC(=O)[C@H](C)NC(=O)[C@@H]1CCCN1C(=O)CNC(=O)[C@H](CC(C)C)NC(=O)[C@H](CC(=O)O)NC(=O)[C@H](CC(C)C)NC(=O)[C@@H]1CCCN1C(=O)[C@@H]1CCCN1C(=O)[C@@H]1CCC(=O)N1)C(=O)N[C@@H](CCCNC(=N)N)C(N)=O` [HIRa4] (HELM PEPTIDE1{[Glp].P.P.L.D.L.G.P.A.Y.F.H.I.R.[am]}$$$$V2.0) were 10 mg/mL and 5 mg/mL.
The corresponding values for `CC(C)C[C@H](NC(=O)[C@H](Cc1c[nH]cn1)NC(=O)[C@H](CO)NC(=O)[C@H](CC(C)C)NC(=O)[C@@H]1CCCN1C(=O)[C@@H]1CCCN1C(=O)[C@@H]1CCC(=O)N1)C(=O)N[C@@H](CO)C(N)=O` [HLSa] (HELM PEPTIDE1{[Glp].P.P.L.S.H.L.S.[am]}$$$$V2.0) are 5 mg/mL and 0 mg/mL.
For `CC(C)C[C@H](NC(=O)[C@H](CO)NC(=O)[C@H](C)NC(=O)[C@@H](NC(=O)[C@H](CC(=O)O)NC(=O)[C@H](CC(N)=O)NC(=O)[C@H](CCC(=O)O)NC(=O)[C@H](CO)NC(=O)[C@@H](NC(=O)[C@H](CCC(=O)O)NC(=O)[C@H](CO)NC(=O)[C@@H](NC(=O)[C@H](CO)NC(=O)[C@@H]1CCCN1C(=O)[C@H](CC(C)C)NC(=O)[C@@H]1CCC(=O)N1)C(C)C)C(C)C)C(C)C)C(=O)N[C@@H](CC(C)C)C(=O)N[C@@H](CCCNC(=N)N)C(=O)N[C@@H](CCC(=O)O)C(=O)O` [LRE] (HELM PEPTIDE1{[Glp].L.P.S.V.S.E.V.S.E.N.D.V.A.S.L.L.R.E}$$$$V2.0), the “max solve (DMSO)” value worked out at 5 mg/mL and the max solve water is 0 mg/mL.
Taken in the same sequence, the figures for `CC(C)C[C@H](NC(=O)CNC(=O)[C@@H]1CCC(=O)N1)C(=O)N[C@@H](CCCNC(=N)N)C(=O)N[C@@H](Cc1c[nH]c2ccccc12)C(N)=O` [LRWa1] (HELM PEPTIDE1{[Glp].G.L.R.W.[am]}$$$$V2.0) were 5 mg/mL and 0 mg/mL.
Taken in the same sequence, the figures for `CC(C)C[C@H](NC(=O)CNC(=O)CNC(=O)[C@@H]1CCC(=O)N1)C(=O)N[C@@H](CCCNC(=N)N)C(=O)N[C@@H](Cc1c[nH]c2ccccc12)C(N)=O` [LRWa2] (HELM PEPTIDE1{[Glp].G.G.L.R.W.[am]}$$$$V2.0) were 10 mg/mL and 5 mg/mL.
